# From US20260000629A1, “FERROPTOSIS INHIBITOR” (TOHOKU UNIVERSITY, priority 2020, published 2026)
# What was measured:
# H9C2 cell line = test: Ferroptosis induction treatment, cell viability by WST-8 assay, H9C2 cell line; type: cell-based, rat; details: for cell viability level compared with ferroptosis inducer alone: with 50 nM RSL3, 2 μM elastin, 0.3 μM ML210, 0.3 μM ML162, 0.5 μM FIN56, 100 μM BSO or 5 μM FINO2, FIG. 2; for decrease in the cell viability level caused by ferroptosis inducer: with 100 μM BSO, 2 μM elastin, 50 nM RSL3 or 0.5 μM FIN56, FIG. 1
# Text: Three different cell lines (the H9C2 cell line, which is a rat cardiac myoblast cell line, the NR[…] cell line, which is a rat kidney fibroblast, and the C2C12 cell line, which is a mouse myoblast cell line) were obtained from the American Type Culture Collection (ATCC); the Panc-1 cell line, which is a human pancreatic cancer cell line, was obtained the Cell Resource Center for Biomedical Research, Institute of Development, Aging and Cancer, Tohoku University/Cell Bank; and the HT22 cell line, which is a mouse hippocampus nerve cell line, was purchased from Merck Millipore Co. All the cell lines were subcultured in a Dulbecco's Modified Eagle Medium (DMEM) culture solution containing 100-fold diluted 1% penicillin-streptomycin (26253-84; manufactured by Nacalai Tesque, Inc.) (hereinafter simply referred to as “DMEM culture solution”) to which 10% fetal bovine serum (FBS) and 4.5 g glucose/L were added (hereinafter referred to as “DMEM [high glucose] culture solution”) under conditions of 5% CO2/20% O2 and 37° C. 4000 cells of five different cell lines (the H9C2 cell line, the Panc-1 cell line, the NR[…] cell line, the C2C12 cell line, and the HT22 cell line) were seeded on a 96-well plate and cultured overnight in a DMEM culture solution containing 1.0 g glucose/L (low glucose) and 1% FBS (hereinafter referred to as “DMEM [low glucose low serum] culture solution”). After the procedure of the above-mentioned, ferroptosis was induced in cells from the above-mentioned five different cell lines in the presence of each of […] of the present invention (vitamin K1, vitamin K2 [menaquinone-4], vitamin K3, or vitamin K3 hydroquinone) (see Table 1) or a known ferroptosis inhibitor (ferrostatin 1). Specifically, cells from the H9C2 cell line were cultured in the presence of each of six different test substances (10 μM vitamin K1 [manufactured by FUJIFILM Wako Pure Chemical Corporation], 10 μM menaquinone-4 [manufactured by Sigma-Aldrich], 3 μM or 1 μM menadione [manufactured by Sigma-Aldrich], 1 μM vitamin K3 hydroquinone [manufactured by Toronto Research Chemicals], or 0.3 μM ferrostatin 1 [manufactured by Cayman]) at various concentrations and each of eight different ferroptosis inducers (100 μM BSO [manufactured by Sigma-Aldrich], 1.5 μM or 2 μM elastin [manufactured by Cayman], 50 nM RSL3 [manufactured by Selleck Chemicals], 0.3 μM ML210 [manufactured by Cayman], 0.3 μM ML162 [manufactured by Cayman], 0.5 μM FIN56 [manufactured by Cayman], 5 μM FINO2 [manufactured by Cayman], or 4 mM glutamic acid [manufactured by Sigma-Aldrich]) for 60 hours for BSO treatment, for 48 hours for elastin treatment, RSL3 treatment, and FIN56 treatment, and for 24 hours for ML210 treatment, ML162 treatment, FINO2 treatment, and glutamic acid treatment. Cell viability levels were measured by WST-8 assay using Cell Count Reagent SF. The cell viability level was calculated as a relative value of the cell survival level when the cell viability level when cultured in the absence of a test substance and a ferroptosis inducer was set to 1.
# Panc-1 cell line = test: Ferroptosis induction treatment, cell viability by WST-8 assay, Panc-1 cell line; type: cell-based, human; details: with 5 μM elastin, FIG. 3A
# Text: (§1) Three different cell lines (the H9C2 cell line, which is a rat cardiac myoblast cell line, the NR[…] cell line, which is a rat kidney fibroblast, and the C2C12 cell line, which is a mouse myoblast cell line) were obtained from the American Type Culture Collection (ATCC); the Panc-1 cell line, which is a human pancreatic cancer cell line, was obtained the Cell Resource Center for Biomedical Research, Institute of Development, Aging and Cancer, Tohoku University/Cell Bank; and the HT22 cell line, which is a mouse hippocampus nerve cell line, was purchased from Merck Millipore Co. All the cell lines were subcultured in a Dulbecco's Modified Eagle Medium (DMEM) culture solution containing 100-fold diluted 1% penicillin-streptomycin (26253-84; manufactured by Nacalai Tesque, Inc.) (hereinafter simply referred to as “DMEM culture solution”) to which 10% fetal bovine serum (FBS) and 4.5 g glucose/L were added (hereinafter referred to as “DMEM [high glucose] culture solution”) under conditions of 5% CO2/20% O2 and 37° C. 4000 cells of five different cell lines (the H9C2 cell line, the Panc-1 cell line, the NR[…] cell line, the C2C12 cell line, and the HT22 cell line) were seeded on a 96-well plate and cultured overnight in a DMEM culture solution containing 1.0 g glucose/L (low glucose) and 1% FBS (hereinafter referred to as “DMEM [low glucose low serum] culture solution”). After the procedure of the above-mentioned, ferroptosis was induced in cells from the above-mentioned five different cell lines in the presence of each of five different vitamin K group compounds of the present invention (vitamin K1, vitamin K2 [menaquinone-4], vitamin K3, or vitamin K3 hydroquinone) (see Table 1) or a known ferroptosis inhibitor (ferrostatin 1). […] Cell viability levels were measured by WST-8 assay using Cell Count Reagent SF. The cell viability level was calculated as a relative value of the cell survival level when the cell viability level when cultured in the absence of a test substance and a ferroptosis inducer was set to 1.
# NRK49F cell line = test: Ferroptosis induction treatment, cell viability by WST-8 assay, NRK49F cell line; type: cell-based, rat; details: with 500 μM BSO, FIG. 3B
# Text: as §1
# [1] = test system: lipid peroxy radicals (LOO·); test: Scavenging ability against lipid peroxy radicals, AA/LOX system using NBD-Pen fluorescence probe; type: biochemical; details: 100 μM test substance; AA and LOX, PBS pH 7.4, 37° C.; vs absence of test substance; FIG. 6
# Experimental: The scavenging ability against lipid peroxy radicals (LOO·) was analyzed by the AA/LOX system using an NBD-Pen fluorescence probe in accordance with the method in “Nat Chem Biol 12:608-613, 2016.” Specifically, a mixture solution of 0.1% DMSO or 100 μM each of four different test substances (vitamin K1 [manufactured by FUJIFILM Wako Pure Chemical Corporation], vitamin K2 [menaquinone-4; manufactured by Sigma-Aldrich], menadione [manufactured by Sigma-Aldrich], or vitamin K3 hydroquinone [manufactured by Toronto Research Chemicals]) and PBS (pH 7.4) containing 500 μM arachidonic acid (manufactured by Sigma-Aldrich) and 1 mM dithiothreitol (DTT) was prepared and added to a 96-well plate, then 5 μM NBD-Pen fluorescence probe and 10 μg/mL LOX solution (manufactured by Sigma-Aldrich) were added, and the fluorescence level (excitation light, 470 nm; fluorescence wavelength, 530 nm) was measured using a microplate reader (Spectra Max M2e; manufactured by Molecular Devices) at 37° C. […] In the AA/LOX system using an NBD-Pen fluorescence probe, an oxidation reaction of AA by LOX produces a lipid peroxide (LOOH), a lipid peroxy radical (LOO·) is produced from the produced LOOH by Fenton reaction using an iron ion (Fe^2+) as a catalyst, and a scavenging ability against lipid peroxy radicals is detected using the level of NBD-Pen-derived fluorescence produced by a reaction of the produced lipid peroxy radical with NBD-Pen as an indicator.
# C2C12 cell line = test: Ferroptosis induction treatment, cell viability by WST-8 assay, C2C12 cell line; type: cell-based, mouse; details: with 500 μM BSO, FIG. 3C
# Text: as §1
# HT22 cell line = test: Ferroptosis induction treatment (glutamic acid), cell viability by WST-8 assay, HT22 cell line; type: cell-based, mouse; details: with 4 mM glutamic acid, FIG. 4
# Text: as §1
# AHI model mice = test: In vivo analysis using acute hepatic injury (AHI) model mice (LPS and D-GalN); parameters: species or system mouse; details: oral 20 mg/kg at 12 h and 2 h before LPS and D-GalN, vs AHI/solvent treatment group
# Experimental: An AHI model mouse was prepared by administering lipopolysaccharide (LPS) and D-galactosamine (D-GalN). Specifically, eight to nine week-old wild-type male mice (C57BL/6N; manufactured by CLEA) were divided into three groups (the wild type group [n=4], the AHI/solvent treatment group [n=7], and the AHI/VK2 treatment group [n=8]). At 12 hours and two hours before administration of LPS and D-GalN, 0.5% methylcellulose solution (solvent) was orally administered at a dose of 20 mg/kg (body weight) to the AHI/solvent treatment group, and a methylcellulose solution containing vitamin K2 (menaquinone-4) was orally administered at a dose of 20 mg (vitamin K2)/kg (body weight) to the AHI/VK2 treatment group. For LPS and D-GalN administration, PBS containing LPS and D-GalN was injected into the peritoneal cavity at a dose of 5 μg (LPS)/kg (body weight) and 500 mg (D-GalN)/kg (body weight) to the two AHI groups (that is, the AHI/solvent treatment group and the AHI/VK2 treatment group) (refer to “Sci Rep 7:1884, 2017”). The mice were sacrificed at six hours after injection, and blood and liver tissue were collected. The plasma GPT levels were measured for the collected blood using Fuji Dri-chem Slide GPT/ALT-P III (manufactured by Fujifilm Medical). Further, the collected liver tissue was fixed in 10% neutral buffered formalin and embedded in paraffin. The paraffin-embedded liver tissue was sliced to prepare liver tissue sections and subjected to hematoxylin and eosin (HE) staining. Further, deparaffinization treatment was performed by heating the liver tissue sections in a 0.01 M citric acid buffer solution (pH 6.0) at 120° C. for five minutes to prepare deparaffinized liver tissue sections. Immunohistological staining of the deparaffinized liver tissue sections using an anti-HEL antibody (50-fold diluted; clone 5F12; manufactured by JaICA) was performed in accordance with a usual method using a streptavidin-biotin-alkaline phosphatase kit (Histofine SAB-AP [M] kit; manufactured by Nichirei Corporation) and Vector Red Substrate kit (manufactured by Vector Laboratories). Further, dead cells were detected by the TUNEL method using Apop Tag Peroxidase In Situ Apoptosis Detection Kit (manufactured by Merck Millipore).
Compound,NBD-Pen fluorescence signal level (scavenging of lipid peroxy radicals) [1],decrease in the cell viability level caused by ferroptosis inducer (H9C2 cell line; 1 μM test substance),decrease in the cell viability level caused by ferroptosis inducer (Panc-1 cell line; 10 μM test substance),decrease in the cell viability level caused by ferroptosis inducer (NRK49F cell line; 10 μM test substance),decrease in the cell viability level caused by ferroptosis inducer (C2C12 cell line; 10 μM test substance),decrease in the cell viability level caused by ferroptosis inducer (HT22 cell line; 10 μM test substance),cell viability level compared with ferroptosis inducer alone (H9C2 cell line; 10 μM test substance),decrease in the cell viability level caused by ferroptosis inducer (H9C2 cell line; 10 μM test substance),other results
CCOC(=O)c1ccc(NC2CCCCC2)c(N)c1 [ferrostatin 1],,,,,,,,,cell viability level compared with ferroptosis inducer alone (H9C2 cell line; 0.3 μM test substance): significantly increased; decrease in the cell viability level caused by ferroptosis inducer (H9C2 cell line; 0.3 μM test substance): significantly suppressed
"CC1=CC(=O)c2ccccc2C1=O [menadione, Menadione]",decreased,significantly suppressed,,,,,,,decrease in the cell viability level caused by ferroptosis inducer (Panc-1 cell line; 3 μM test substance): significantly suppressed; decrease in the cell viability level caused by ferroptosis inducer (NRK49F cell line; 3 μM test substance): significantly suppressed; decrease in the cell viability level caused by ferroptosis inducer (C2C12 cell line; 3 μM test substance): significantly suppressed; decrease in the cell viability level caused by ferroptosis inducer (HT22 cell line; 3 μM test substance): significantly suppressed; cell viability level compared with ferroptosis inducer alone (H9C2 cell line; 3 μM test substance): significantly increased
"CC1=C(C/C=C(\C)CCCC(C)CCCC(C)CCCC(C)C)C(=O)c2ccccc2C1=O (centres unmarked) [vitamin K1, Phylloquinone]",decreased,,significantly suppressed,significantly suppressed,significantly suppressed,significantly suppressed,significantly increased,significantly suppressed,
"CC(C)=CCCC(C)=CCCC(C)=CCC/C(C)=C/CC1=C(C)C(=O)c2ccccc2C1=O [vitamin K2, Menaquinone-4 (MK-4)]",decreased,,significantly suppressed,significantly suppressed,significantly suppressed,significantly suppressed,significantly increased,significantly suppressed,HEL detection level in liver tissue (lipid peroxide marker) (AHI model mice; FIG. 5A): substantially decreased; severe hemorrhage in the liver tissue (HE staining) (AHI model mice; FIG. 5A): relieved; plasma GPT level (AHI model mice; FIG. 5B): significantly decreased; proportion of dead cells in liver tissue (TUNEL method) (AHI model mice; FIGS. 5A and 5C): significantly decreased
"Cc1cc(O)c2ccccc2c1O [vitamin K3 hydroquinone, Menadiol]",decreased,significantly suppressed,,,,,,,
